Results reported in patent publication US20150216860A1, “THERAPEUTIC AGENT FOR SYSTEMIC BONE DISEASE AND USE THEREOF” (NATIONAL UNIVERSITY CORPORATION NAGOYA INIVERSITY, priority 2013, published 2015).

What was measured:
MEK1/2 phosphorylation = test: Western blotting of MEK phosphorylation in FGF2-treated RCS cells; assay type: cell-based, rat; conditions: 20 μM pretreatment 30 min, 5 ng/ml FGF2 5 min
Experimental: (§1) RCS cells were treated with 20 μM meclizine for 30 min before adding 5 ng/ml FGF2 (“Vehicle” is no treatment group). After 5 min, cells were lysed in the ice-cold RIPA Lysis Buffer (Santa Cruz) supplemented with proteinase inhibitors. Whole cell lysates were separated on SDS-PAGE and transferred to a nitrocellulose membrane. The phosphorylation levels of molecules in the MAPK pathway were determined by Western blotting using the following antibodies: ERK1/2, phospho-ERK1/2(Thr^202/Tyr^204), MEK1/2, and phospho-MEK1/2(Ser^217/221) (Cell Signaling).

[1] = test system: Mmp10, Mmp13, and Adamts1 mRNA; test: Real-time RT-PCR of matrix proteinases in FGF2-treated RCS cells; assay type: cell-based, rat; conditions: FGF2 four hours; 20 μM meclizine or 0.2 μM CNP
Experimental: Total RNA was isolated from FGF2-treated RCS cells in the presence of 20 μM of meclizine or 0.2 μM of CNP using Trizol. The first strand cDNA was synthesized with ReverTra Ace (Toyobo). We quantified mRNA expression of matrix proteinases (Mmp10, Mmp13, and Adamts1) using LightCycler 480 Real-Time PCR (Roche) and SYBR Green (Takara). The mRNA levels were normalized for that of Gapdh.

embryonic tibiae = test: Bone explant culture of embryonic tibiae; parameters: species or system mouse; conditions: for longitudinal length of embryonic tibiae with FGF2: FGF2 100 ng/ml, day 6, meclizine 20 μM, CNP 0.2 μM
Experimental: For bone explant culture, tibiae were dissected under the microscope from wild-type mouse embryos on E16.5, placed in 96-well plates, and cultured in α-minimal essential medium (Invitrogen) supplemented with 0.2% bovine serum albumin, 1 mM β-glycerophosphate, and 50 μg/ml ascorbic acid. Embryonic tibiae were further treated with 100 ng/ml FGF2 in the presence or absence of 20 μM meclizine or 0.2 μM CNP for 6 days, then fixed in 10% formaldehyde in phosphate-buffered saline, demineralized with 0.5 M EDTA, and embedded in paraffin. Sections were stained with hematoxylin-eosin and Alcian blue. Images were taken with the SZ61 microscope (Olympus) equipped with the XZ-1 digital camera (Olympus). The longitudinal length of bone, which was defined as the length between proximal and distal articular cartilage, was measured using ImageJ (NIH).

[2] = test system: RCS cells expressing caMEK; test: MTS growth assay of RCS cells expressing constitutively active MEK; assay type: cell-based, rat
Experimental: (§2) RCS cells, which were kindly provided from Dr. Pavel Krejci (Medical Genetics Institute, Cedars-Sinai Medical Center, LA), were cultured in Dulbecco's Modified Eagle's Medium (DMEM, Invitrogen) supplemented with 10% fetal bovine serum (FBS, Thermo Scientific) (Reference 14). For the RCS growth arrest assays, ˜5×10^3 cells were seeded in 96-well culture plates (Falcon) and incubated for 48 hours in the presence of 10 μM of 1,186 FDA-approved chemical compounds (Prestwick Chemical) and 5 ng/ml of FGF2 (R&D Systems). Cell proliferation was quantified by MTS assay (Cell 96 AQueus One Solution Cell Proliferation Assay, Promega) according to the manufacturer's instructions.
(§3) Clones that express constitutively active mutants in the MAPK/ERK pathway, pcDNA4Myc-ERK2(PD), pcDNA3HA-MEK1(DD), and pcDNA3Flag-C-rafΔN (Reference 30), were kindly provided by Dr. Mutsuhiro Takekawa (Medical Science Institute, Tokyo University, Japan). The inserts were digested with BamHI and XhoI, and were cloned into the CSII-CMV-MCS-IRES2-Venus at the BamHI sites after blunting all digested ends. Lentivirus particles were generated as described above and were applied to RCS cells.

[3] = test system: HCS-2/8 cells expressing FGFR3-K650E (TD); test: Growth assay of HCS-2/8 cells expressing FGFR3-K650E; assay type: cell-based, human; conditions: for integrated intensities of Venus signals: K650E-expressing HCS-2/8, 72 hours
Excerpt: (§4) The pRK7-FGFR3-WT, -K650E, and -K650M vectors expressing wild-type and mutant FGFR3 (Reference 29) were kindly provided by Dr. Pavel Krejci (Medical Genetics Institute, Cedars-Sinai Medical Center, LA). The pRK7-FGFR3-G380R was constructed by the QuikChange site-directed mutagenesis kit (Stratagene). The wild-type and mutant FGFR3 cDNAs were excised from pRK7-FGFR3 vectors by double digestion with HindIII and BamHI. The fragments were cloned into the lentivirus vector, CSII-CMV-MCS-IRES2-Venus using the NheI and BamHI sites. CSII-CMV-MCS-IRES2-Venus was kindly provided by Dr. Hiroyuki Miyoshi (Riken BioResource Center, Tsukuba, Japan.). The HindIII site of the insert and the NheI site of the vector were blunted using Quick Blunting Kit (New England Biolabs) before ligation. HEK293 cells were plated in 150-mm dishes the day before transfection. We introduced the pLP1, pLP2, pLP/VSVG plasmids (ViraPower Packaging Mix, Invitrogen), and the CSII-CMV-MCS-IRES2-Venus vector into HEK293 cells with Lipofectamine 2000 (Invitrogen) according to the manufacturer's protocols. At 48 hours after transfection, we filtered the media containing the virus particles using the Millex-HV 0.45 μm PVDF filters (Millex) and purified lentivirus using two steps of ultracentrifugation (Beckman Coulter). The lentivirus was added to the medium of HCS-2/8 or ATDC5 cells. After 48 hours, we confirmed that more than 90% of cells were positive for Venus signals.
HCS-2/8 (Reference 31) cells were seeded in 96-well tissue culture plates. HCS-2/8 cells were then infected with lentivirus expressing either FGFR3-WT, -K650E, or -K650M. After 48 hours, the numbers of cells were estimated by MTS assay. In addition, ˜1×10^5 HCS-2/8 cells in a 12-well tissue plate were introduced with lentivirus expressing FGFR3-K650E. After 72 hours, the fluorescence intensity of the Venus protein was quantified by the ArrayScan VTI HCS Reader (Thermo Scientific).

[4] = test system: RCS cells expressing caERK; test: MTS growth assay of RCS cells expressing constitutively active ERK; assay type: cell-based, rat
Experimental: as §2, §3

[5] = test system: RCS cells expressing caRAF; test: MTS growth assay of RCS cells expressing constitutively active RAF; assay type: cell-based, rat
Experimental: as §2, §3

FGF2-treated RCS cells [6] = test: RCS growth arrest assay (MTS); assay type: cell-based, rat; conditions: for cell toxicity in RCS cells: 50 μM
Experimental: as §2

[7] = test system: ischemic injury in the brain and heart; conditions: cited from earlier work
ERK1/2 phosphorylation = test: Western blotting of ERK phosphorylation in FGF2-treated RCS cells; assay type: cell-based, rat; conditions: 20 μM pretreatment 30 min, 5 ng/ml FGF2 5 min
Experimental: as §1

[8] = test system: ATDC5 cells expressing FGFR3-G380R (ACH); test: Micromass culture of ATDC5 cells expressing FGFR3-G380R; assay type: cell-based, mouse; conditions: six days, 20 μM meclizine
[9] = test system: HCS-2/8 cells expressing FGFR3-K650M (SADDAN); test: Growth assay of HCS-2/8 cells expressing FGFR3-K650M; assay type: cell-based, human; conditions: 20 μM
Excerpt: as §4, with “At 48 hours after transfection, we filtered the media containing the virus particles using the Millex-HV 0.45 μm PVDF filters (Millex) and purified lentivirus using two steps of ultracentrifugation (Beckman Coulter). The lentivirus was added to the medium of HCS-2/8 or ATDC5 cells. After 48 hours, we confirmed that more than 90% of cells were positive for Venus signals.” left out
HCS-2/8 (Reference 31) cells were seeded in 96-well tissue culture plates. […] After 72 hours, the fluorescence intensity of the Venus protein was quantified by the ArrayScan VTI HCS Reader (Thermo Scientific).

FGF2-treated RCS cells [10] = test: Alcian blue staining of FGF2-treated RCS cells; assay type: cell-based, rat; conditions: 5 ng/ml FGF2, 72 hours; meclizine 10 μM or 20 μM, CNP 0.2 μM
Experimental: For Alcian blue staining, growing RCS cells in 12-well plates were added with 5 ng/ml FGF2 and also with either 10 μM meclizine or 0.2 μM CNP (Calbiochem). After 72 hours, cells were fixed with methanol for 30 minutes at −20° C., and stained overnight with 0.5% Alcian Blue 8 GX (Sigma) in 1 N HCl. For quantitative analyses, Alcian blue-stained cells were lysed in 200 μl of 6 M guanidine HCl for 6 hours at room temperature (Reference 28). The optical density of the extracted dye was measured at 610 nm using PowerScan 4 (DS Pharma Biomedical).

normal mouse [11] = test: Internal administration to normal pregnant mouse, neonatal mouse evaluated; assay type: in vivo; conditions: in feed to pregnant mouse from day 14 of pregnancy, day 5 after birth
Experimental: (§5) Meclizine was internally administered to a normal pregnant mouse from day 14 of pregnancy (2 mg of meclizine is contained in 5 g of feed), and the body length and extremity length of the neonatal mouse on day 5 after birth were evaluated. On the other hand, meclizine was internally administered to a normal mouse from week 2 after birth, and the mouse was evaluated in the same manner on week 5.

normal mouse [12] = test: Internal administration to normal mouse from week 2 after birth; assay type: in vivo; conditions: administered from week 2 after birth, evaluated week 5
Experimental: as §5

[13] = in vivo; cited from earlier work
Fgfr3^ach mice = conditions: continuous intravenous infusion; cited from earlier work
Fgfr3^Y367C/+ mice = conditions: subcutaneous administration; cited from earlier work
FGFR3 signaling = conditions: cited from earlier work

Cc1cccc(CN2CCN(C(c3ccccc3)c3ccc(Cl)cc3)CC2)c1 (stereo not shown) [meclizine, 1-[(4-chlorophenyl)phenylmethyl]-4-[(3-methylphenyl)methyl]piperazine]
MEK1/2 phosphorylation (MEK1/2 phosphorylation): remained unchanged | expressions of Mmp10, Mmp13, and Adamts1 [1]: significantly suppressed | longitudinal length of embryonic tibiae with FGF2 (embryonic tibiae): significantly attenuated FGF2-mediated growth inhibition | length of tibia without FGF2 treatment (embryonic tibiae; without FGF2, day 6, 20 μM): increased the length of tibia | caMEK-mediated growth inhibition [2]: rescued | cellular toxicity in K650E-expressing HCS-2/8 ([3]; 20 μM): without apparent cellular toxicity | growth arrest of K650E-expressing HCS-2/8 ([3]; 20 μM, 48 hours, MTS assay): partially but significantly rescued the growth arrest | integrated intensities of Venus signals [3]: significantly increased | caERK-mediated growth inhibition [4]: had no effect | caRAF-mediated growth inhibition [5]: rescued | RCS proliferation, concentration dependence (FGF2-treated RCS cells [6]; 0, 1, 2, 5, 10, 20, and 50 μM, 5 ng/ml FGF2, 48 hours, MTS assay): dose-dependent increases | increase in RCS proliferation (FGF2-treated RCS cells [6]; 10 μM compound, 5 ng/ml FGF2, 48 hours, MTS assay): ≥ 1.4 fold | cell toxicity in RCS cells (FGF2-treated RCS cells [6]): cell toxicity was evident | cell toxicity in RCS cells (FGF2-treated RCS cells [6]; listed as Meclizine): slight toxicity | cytoprotective activity against ischemic injury [7]: cytoprotective activities | FGF2-mediated ERK1/2 phosphorylation (ERK1/2 phosphorylation): attenuated | levels of glycosaminoglycans (Alcian blue, 610 nm absorbance) [8]: significantly increased the levels of glycosaminoglycans | cellular toxicity in K650M-expressing HCS-2/8 [9]: without apparent cellular toxicity | growth arrest of K650M-expressing HCS-2/8 ([9]; 48 hours, MTS assay): partially but significantly rescued the growth arrest | Alcian blue staining and chondrocyte-like cell shape (FGF2-treated RCS cells [10]): restored | body length of neonatal mouse (normal mouse [11]): increase | length of superior and inferior limbs of neonatal mouse (normal mouse [11]): increase | body length (normal mouse [12]): increase | tail length (normal mouse [12]): increase

CNP: C-type natriuretic peptide, potent antagonist of FGFR3 signaling, used as positive control
expressions of Mmp10, Mmp13, and Adamts1 [1]: significantly suppressed | longitudinal length of embryonic tibiae with FGF2 (embryonic tibiae): significantly attenuated FGF2-mediated growth inhibition | integrated intensities of Venus signals [3]: increased the integrated Venus signal intensities | half-life [13]: very short | levels of glycosaminoglycans (Alcian blue, 610 nm absorbance) [8]: increased the Alcian blue staining | Alcian blue staining and chondrocyte-like cell shape (FGF2-treated RCS cells [10]): approximated that of FGF2-negative cells | dwarfism of Fgfr3^ach mice (Fgfr3^ach mice): successfully normalized the dwarfism

BMN111: CNP analog with extended plasma half-life (PGQEHPNARKYKGANKKGLSKGCFGLKLDRIGSMSGLGC; chains of the INN, looked up)
plasma half-life [13]: extended | bone growth in Fgfr3^Y367C/+ mice (Fgfr3^Y367C/+ mice): significant recovery of bone growth

O=C(Nc1cc(C(=O)Nc2ccc(S(=O)(=O)O)cc2S(=O)(=O)O)cc(C(=O)Nc2ccc(S(=O)(=O)O)cc2S(=O)(=O)O)c1)Nc1cc(C(=O)Nc2ccc(S(=O)(=O)O)cc2S(=O)(=O)O)cc(C(=O)Nc2ccc(S(=O)(=O)O)cc2S(=O)(=O)O)c1 [NF449]
FGFR3 signaling in RCS chondrocytes (FGFR3 signaling): inhibits FGFR3 signaling
